ChEMBL document CHEMBL4138241, “Synthesis and in vitro evaluation of novel substituted isatin-propylene-1H-1,2,3-triazole-4-methylene-moxifloxacin hybrids for their anti-mycobacterial activities” (Eur J Med Chem, 2018)
Converted amounts (≈) assume the structure as drawn.

Tests used:
[1] = system: Mycobacterium tuberculosis; assay: Antimycobacterial activity against Mycobacterium tuberculosis H37Rv after 3 days by rapid direct susceptibility test; type: functional; settings: 72 h
[2] = Cytotoxicity against African green monkey Vero cells assessed as reduction in cell viability after 72 hrs by MTT assay; type: cell-based; settings: chlorocebus sabaeus
[3] = Selectivity index, ratio of CC50 against African green monkey Vero cells to MIC for Mycobacterium tuberculosis H37Rv; type: toxicity; settings: read-out: Selectivity Index
[4] = AUC (0 to infinity) in ICR mouse at 50 mg/kg, po by HPLC analysis; type: ADME, organism-based; parameters: dose 50 mg/kg, time infinity, route oral; settings: in vivo
[5] = system: Mycobacterium tuberculosis; assay: Potency index, ratio of rifampicin MIC to compound MIC for antimycobacterial activity against Mycobacterium tuberculosis H37Rv; type: functional
[6] = Tmax in ICR mouse at 50 mg/kg, po by HPLC analysis; type: ADME, organism-based; settings: in vivo
[7] = Elimination half life in ICR mouse at 50 mg/kg, po by HPLC analysis; type: ADME, organism-based; settings: in vivo, read-out: beta t1/2 (converted)
[8] = Half life in mouse microsomes; type: ADME, Microsome
[9] = Cmax in ICR mouse at 50 mg/kg, po by HPLC analysis; type: ADME, organism-based; parameters: dose 50 mg/kg, route oral; settings: in vivo
[10] = system: Mycobacterium tuberculosis; assay: Potency index, ratio of moxifloxacin MIC to compound MIC for antimycobacterial activity against Mycobacterium tuberculosis H37Rv; type: functional

Row | Structure (SMILES) | MIC [1] | CC50 at 72 h [2] | selectivity ratio [3] | AUC(0-inf) [4] | Ratio [5] | Tmax [6] | half-life [7] | half-life [8] | Cmax [9] | Ratio [10]
1 | COc1c(N2C[C@H]3CCCN(Cc4cn(CCCN5C(=O)/C(=N/O)c6cc(C)ccc65)nn4)[C@H]3C2)c(F)cc2c(=O)c(C(=O)O)cn(C3CC3)c12 | 1.56 µg/mL (≈ 2.23 µM) | 8 µg/mL (≈ 11.4 µM) | 5.1 | – | – | – | – | – | – | –
2 | COc1c(N2C[C@H]3CCCN(Cc4cn(CCCN5C(=O)C(=O)c6cc(C)ccc65)nn4)[C@H]3C2)c(F)cc2c(=O)c(C(=O)O)cn(C3CC3)c12 | 0.39 µg/mL (≈ 0.57 µM) | 32 µg/mL (≈ 46.8 µM) | 82 | – | – | – | – | – | – | –
3 | CO/N=C1/C(=O)N(CCCn2cc(CN3CCC[C@@H]4CN(c5c(F)cc6c(=O)c(C(=O)O)cn(C7CC7)c6c5OC)C[C@@H]43)nn2)c2ccccc21 | 0.1 µg/mL (≈ 0.143 µM) | 16 µg/mL (≈ 22.9 µM) | 160 | – | – | – | – | – | – | –
4 | CCO/N=C1/C(=O)N(CCCn2cc(CN3CCC[C@@H]4CN(c5c(F)cc6c(=O)c(C(=O)O)cn(C7CC7)c6c5OC)C[C@@H]43)nn2)c2ccccc21 | 0.39 µg/mL (≈ 0.547 µM) | 16 µg/mL (≈ 22.4 µM) | 41 | – | – | – | – | – | – | –
5 | COc1c(N2C[C@H]3CCCN(Cc4cn(CCCN5C(=O)C(=O)c6ccccc65)nn4)[C@H]3C2)c(F)cc2c(=O)c(C(=O)O)cn(C3CC3)c12 | 1.56 µg/mL (≈ 2.33 µM) | 16 µg/mL (≈ 23.9 µM) | 10.2 | – | – | – | – | – | – | –
6 | CO/N=C1/C(=O)N(CCCn2cc(CN3CCC[C@@H]4CN(c5c(F)cc6c(=O)c(C(=O)O)cn(C7CC7)c6c5OC)C[C@@H]43)nn2)c2ccc(F)cc21 | 0.05 µg/mL (≈ 0.0698 µM) | 4 µg/mL (≈ 5.58 µM) | 80 | 1240 ng·h/mL | 2 - 8 | 1.33 h | 3.87 h | 0.228 h | 243 ng/mL | 2 - 8
7 | CCO/N=C1/C(=O)N(CCCn2cc(CN3CCC[C@@H]4CN(c5c(F)cc6c(=O)c(C(=O)O)cn(C7CC7)c6c5OC)C[C@@H]43)nn2)c2ccc(F)cc21 | 0.2 µg/mL (≈ 0.274 µM) | 4 µg/mL (≈ 5.47 µM) | 20 | – | – | – | – | – | – | –
8 | COc1c(N2C[C@H]3CCCN(Cc4cn(CCCN5C(=O)C(=O)c6cc(F)ccc65)nn4)[C@H]3C2)c(F)cc2c(=O)c(C(=O)O)cn(C3CC3)c12 | 0.78 µg/mL (≈ 1.13 µM) | 16 µg/mL (≈ 23.3 µM) | 20.5 | – | – | – | – | – | – | –
9 | COc1c(N2C[C@H]3CCCN(Cc4cn(CCCN5C(=O)/C(=N/O)c6ccccc65)nn4)[C@H]3C2)c(F)cc2c(=O)c(C(=O)O)cn(C3CC3)c12 | 0.78 µg/mL (≈ 1.14 µM) | 8 µg/mL (≈ 11.7 µM) | 10.2 | – | – | – | – | – | – | –
10 | COc1c(N2C[C@H]3CCCN(Cc4cn(CCCN5C(=O)/C(=N/O)c6cc(F)ccc65)nn4)[C@H]3C2)c(F)cc2c(=O)c(C(=O)O)cn(C3CC3)c12 | 0.78 µg/mL (≈ 1.11 µM) | 2 µg/mL (≈ 2.85 µM) | 2.6 | – | – | – | – | – | – | –
11 | CO/N=C1/C(=O)N(CCCn2cc(CN3CCC[C@@H]4CN(c5c(F)cc6c(=O)c(C(=O)O)cn(C7CC7)c6c5OC)C[C@@H]43)nn2)c2ccc(C)cc21 | 0.39 µg/mL (≈ 0.547 µM) | 8 µg/mL (≈ 11.2 µM) | 20.5 | – | – | – | – | – | – | –
12 | CCO/N=C1/C(=O)N(CCCn2cc(CN3CCC[C@@H]4CN(c5c(F)cc6c(=O)c(C(=O)O)cn(C7CC7)c6c5OC)C[C@@H]43)nn2)c2ccc(C)cc21 | 0.39 µg/mL (≈ 0.537 µM) | 4 µg/mL (≈ 5.5 µM) | 10.2 | – | – | – | – | – | – | –
13 | NNC(=O)c1ccncc1 [ISONIAZID] | 0.05 µg/mL (≈ 0.365 µM) | 128 µg/mL (≈ 933 µM) | 2560 | – | – | – | – | – | – | –
14 | COc1c(N2C[C@@H]3CCCN[C@@H]3C2)c(F)cc2c(=O)c(C(=O)O)cn(C3CC3)c12 [MOXIFLOXACIN] | 0.1 µg/mL (≈ 0.249 µM) | 128 µg/mL (≈ 319 µM) | – | 7030 ng·h/mL | – | 1.08 h | – | – | 2730 ng/mL | –
15 | CO[C@H]1/C=C/O[C@@]2(C)Oc3c(C)c(O)c4c(O)c(c(/C=N/N5CCN(C)CC5)c(O)c4c3C2=O)NC(=O)/C(C)=C\C=C\[C@H](C)[C@H](O)[C@@H](C)[C@@H](O)[C@@H](C)[C@H](OC(C)=O)[C@@H]1C [RIFAMPIN] | 0.39 µg/mL (≈ 0.474 µM) | 512 µg/mL (≈ 622 µM) | 1310 | – | – | – | – | – | – | –
